Assays:
[1] = test system: spindle assembly checkpoint; test: SAC-Formation - Paclitaxel-Induced Assay; assay type: cell-based; settings: Homo sapiens; HeLa cells, paclitaxel 0.05 μM, 24 h, phosphorylated histone H3 on serine 10
How it was run: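 HeLa cells were plated overnight, then given paclitaxel (0.05 μM final) plus compound (0.005-20 μM, 0.5% DMSO) for 24 h at 37° C. Fixed cells were stained for phospho-histone H3 Ser10 and with Hoechst, then imaged to give mitotic index. A fall in mitotic cells marks SAC breakthrough, and values were fit with a four-parameter Hill equation.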

HeLa = test: Proliferation assay (crystal violet), HeLa; assay type: cell-based; settings: Homo sapiens, 96 h, 4 days, read-out: Inhibition of proliferation IC50 HeLa
How it was run: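 Tumour cells seeded at 1000–5000 cells/well in medium with 10% FCS, dosed after 24 h at 0.001–10 μM (0.5% DMSO final) for 4 days. Cell number read by crystal-violet staining after glutaraldehyde fixation (A595), normalised to zero-point plate (0%) and untreated cells (100%); IC50 from 4-parameter fit.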

IC50 [1] [µM] | IC50 (HeLa) [µM] | Compound
5.6 | 10 | CCOC(=O)c1cnc(Nc2snc(C)c2C(=O)Nc2ccccc2CC)s1 [Example 92, Ethyl 2-({4-[(2-ethylphenyl)-carbamoyl]-3-methyl-1,2-thiazol-5-yl}amino)-1,3-thiazole-5-carboxylate]
0.15 | 0.8 | CCc1cnc(Nc2snc(C)c2C(=O)Nc2ccc(F)c(F)c2)cn1 [Example 79, N-(3,4-Difluorophenyl)-5-[(5-ethylpyrazin-2-yl)amino]-3-methyl-1,2-thiazole-4-carboxamide]
0.91 | 2.5 | CCNc1cncc(Nc2snc(C)c2C(=O)Nc2ccc(F)c(F)c2)n1 [Example 78, N-(3,4-Difluorophenyl)-5-{[6-(ethylamino)pyrazin-2-yl]amino}-3-methyl-1,2-thiazole-4-carboxamide]
0.013 | 2.6 | CCc1cncc(Nc2snc(C)c2C(=O)Nc2ccc(F)c(F)c2)n1 [Example 76, N-(3,4-Difluorophenyl)-5-[(6-ethylpyrazin-2-yl)amino]-3-methyl-1,2-thiazole-4-carboxamide]
20 | 1.7 | COc1cncc(Nc2snc(C)c2C(=O)Nc2ccc(F)c(F)c2)n1 [Example 72, N-(3,4-Difluorophenyl)-5-[(6-methoxypyrazin-2-yl)amino]-3-methyl-1,2-thiazole-4-carboxamide]
0.022 | 0.77 | Cc1nsc(Nc2cncc(-n3cccn3)n2)c1C(=O)Nc1ccc(Cl)c(F)c1 [Example 67, N-(4-Chloro-3-fluorophenyl)-3-methyl-5-{[6-(1H-pyrazol-1-yl)pyrazin-2-yl]amino}-1,2-thiazole-4-carboxamide]
0.0083 | 0.2 | Cc1nsc(Nc2cnc(Br)cn2)c1C(=O)Nc1ccc(F)c(F)c1 [Example 77, 5-[(5-Bromopyrazin-2-yl)amino]-N-(3,4-difluorophenyl)-3-methyl-1,2-thiazole-4-carboxamide]
0.031 | 0.26 | Cc1nsc(Nc2cnc(Cl)cn2)c1C(=O)Nc1ccc(F)c(F)c1 [Example 74, 5-[(5-Chloropyrazin-2-yl)amino]-N-(3,4-difluorophenyl)-3-methyl-1,2-thiazole-4-carboxamide]
1.4 | 9.7 | CCc1ccccc1NC(=O)c1c(C)nsc1Nc1nc(C(=O)OC)co1 [Example 91, Methyl 2-({4-[(2-ethylphenyl)carbamoyl]-3-methyl-1,2-thiazol-5-yl}amino)-1,3-oxazole-4-carboxylate]
11 | > 10 | CCc1ccccc1NC(=O)c1c(C)nsc1Nc1ccncn1 [Example 2, N-(2-Ethylphenyl)-3-methyl-5-(pyrimidin-4-ylamino)-1,2-thiazole-4-carboxamide]
0.49 | 1 | CCc1ccccc1NC(=O)c1c(C)nsc1Nc1cnc2cc(Cl)ccc2n1 [Example 86, 5-[(6-Chloroquinoxalin-2-yl)amino]-N-(2-ethylphenyl)-3-methyl-1,2-thiazole-4-carboxamide]
0.34 | 7.7 | Cc1nsc(Nc2cnc3cc(C(F)(F)F)ccc3n2)c1C(=O)Nc1ccc(Cl)c(Cl)c1 [Example 61, N-(3,4-Dichlorophenyl)-3-methyl-5-{[6-(trifluoromethyl)quinoxalin-2-yl]amino}-1,2-thiazole-4-carboxamide]
1.7 | 3.2 | CCc1ccccc1NC(=O)c1c(C)nsc1Nc1cc(C#N)ccn1 [Example 4, 5-[(4-Cyanopyridin-2-yl)amino]-N-(2-ethylphenyl)-3-methyl-1,2-thiazole-4-carboxamide]
5.1 | 7.7 | CCc1ccccc1NC(=O)c1c(C)nsc1Nc1ncccc1C(F)(F)F [Example 3, N-(2-Ethylphenyl)-3-methyl-5-{[3-(trifluoromethyl)pyridin-2-yl]amino}-1,2-thiazole-4-carboxamide]
2.3 | 3.6 | COc1ccc(NC(=O)c2c(C)nsc2Nc2nc3cccnc3s2)cn1 [Example 89, N-(6-Methoxypyridin-3-yl)-3-methyl-5-([1,3]thiazolo[5,4-b]pyridin-2-ylamino)-1,2-thiazole-4-carboxamide]

Continued, molecule first:

Compound | IC50 [1] [µM] | IC50 (HeLa) [µM]
COc1ccc(NC(=O)c2c(C)nsc2Nc2ncc(C(=O)N3CCOCC3)s2)cc1F [Example 93, N-(3-Fluoro-4-methoxyphenyl)-3-methyl-5-{[5-(morpholin-4-ylcarbonyl)-1,3-thiazol-2-yl]amino}-1,2-thiazole-4-carboxamide] | 8 | 10
Cc1nsc(Nc2cnc(C(F)(F)F)cn2)c1C(=O)Nc1ccc(F)c(F)c1 [Example 81, N-(3,4-Difluorophenyl)-3-methyl-5-{[5-(trifluoromethyl)pyrazin-2-yl]amino}-1,2-thiazole-4-carboxamide] | 0.016 | 0.38
Cc1nsc(Nc2cncc(C(F)(F)F)n2)c1C(=O)Nc1ccc(F)c(F)c1 [Example 82, N-(3,4-Difluorophenyl)-3-methyl-5-{[6-(trifluoromethyl)pyrazin-2-yl]amino}-1,2-thiazole-4-carboxamide] | 0.077 | 0.11
COc1ccc(NC(=O)c2c(C)nsc2Nc2nc3ccc(F)cc3s2)cn1 [Example 88, 5-[(6-Fluoro-1,3-benzothiazol-2-yl)amino]-N-(6-methoxypyridin-3-yl)-3-methyl-1,2-thiazole-4-carboxamide] | 1.1 | 2.1
COc1ccc(NC(=O)c2c(C)nsc2Nc2cnc(C(F)(F)F)cn2)cn1 [Example 85, N-(6-methoxypyridin-3-yl)-3-methyl-5-{[5-(trifluoromethyl)pyrazin-2-yl]amino}-1,2-thiazole-4-carboxamide] | 0.052 | 1
Cc1nsc(Nc2ccc(C(F)(F)F)nn2)c1C(=O)Nc1ccc(F)c(F)c1 [Example 83, N-(3,4-Difluorophenyl)-3-methyl-5-{[6-(trifluoromethyl)pyridazin-3-yl]amino}-1,2-thiazole-4-carboxamide] | 0.0093 | 0.92
CCOC(=O)c1sc(Nc2snc(C)c2C(=O)Nc2ccc(Cl)c(F)c2)nc1C [Example 95, Ethyl 2-({4-[(4-chloro-3-fluoro-phenyl)carbamoyl]-3-methyl-1,2-thiazol-5-yl}amino)-4-methyl-1,3-thiazole-5-carboxylate] | 0.51 | 1.2
Cc1nsc(Nc2cnc3cc(C(F)(F)F)ccc3n2)c1C(=O)Nc1ccc(Cl)c(F)c1 [Example 68, N-(4-Chloro-3-fluorophenyl)-3-methyl-5-{[6-(trifluoromethyl)quinoxalin-2-yl]amino}-1,2-thiazole-4-carboxamide] | 0.03 | 1
COc1ccc(NC(=O)c2c(C)nsc2Nc2nc3ccc(C)cc3s2)cn1 [Example 90, N-(6-Methoxypyridin-3-yl)-3-methyl-5-[(6-methyl-1,3-benzothiazol-2-yl)amino]-1,2-thiazole-4-carboxamide] | 2.3 | 10
COc1ccc2nc(Nc3snc(C)c3C(=O)Nc3ccc(OC)nc3)sc2c1 [Example 87, 5-[(6-Methoxy-1,3-benzothiazol-2-yl)amino]-N-(6-methoxypyridin-3-yl)-3-methyl-1,2-thiazole-4-carboxamide] | 0.35 | 2.8
